Assay results from patent US20220249525A1, “Fatty Acid Compounds for Prevention and Treatment of Neurodegenerative Disorders” (T OMEGA AS, priority 2019, published 2022).

How the values were obtained:
Format in all cases: cell-based
HCC827 cells = assay: Resazurin conversion cell viability/proliferation assay in HCC827 cells
Description: Non-small cell lung cancer cells, HCC827 (ATCC) were cultured in RPMI-1640 Glutamax medium (Sigma-Aldrich St. Louis, Mo., USA), under conventional culture conditions. Media was supplemented with 10% Fetal Bovine Serum (FBS), 1% glutamine and 1% streptomycin/penicillin (Sigma-Aldrich). HeLaNRF1/c4 reporter cells were cultured in Dulbecco's Modified Eagle's Medium (DMEM) supplemented with 10% FBS, 2 mM L-Glutamine, 100 u/ml penicillin/streptomycin (Sigma-Aldrich,). Incubation was done at 37° C. in 5% CO2.
Cell viability/proliferation was determined by the resazurin conversion assay. A total of 4000 cells were seeded in each of the 96-well plates in 100 μl of medium. After 3 hours of incubation, 100 μl of fresh medium with respective concentration of the desired compound or controls were added. Resazurin solution (Sigma-Aldrich) was added (10%, v/v in PBS) after 1 or 3 day treatment, followed by 3 hour incubation at 37° C. and 5% CO2. Resazurin fluorescence (excitation, 540 nm; emission, 590 nm) was measured and measurements were corrected for background signals. […] Relative viability was calculated from percent fluorescence relative to DMSO-treated control wells.

[1] = system: HeLaNRF1/c4 reporter cells; assay: Gene expression (qPCR) in HeLaNRF1/c4 reporter cells; details: long-term treatment
Description: The HeLaNRF1/c4 reporter cells were employed to investigate effects of the modified fatty acids on NRF1-regulated mitochondrial biogenesis. The cells (250,000) were seeded in T75 flasks and incubated for 3 hours to allow attachment. The compounds were dissolved in DMSO and diluted in culture medium to provide the final concentration. DMSO at a concentration equivalent to the highest compound concentration was added to control cultures. Resveratrol and AICAR were used as positive controls. Resveratrol has not previously been tested in this reporter model, but we found it relevant to include it for purposes of experimental and mechanistic comparisons. After 3 days of treatment the media was replaced with fresh media containing the corresponding compound. On day 5, the cells were harvested and the cultures split into three fractions: One fraction was used for detection of mitoGFP expression by flow cytometry, to assess effects on NRF-1 regulated mitochondrial biogenesis. Flow cytometry analysis was performed as previously described. Another fraction was used for extraction of RNA and subsequent gene expression analysis using quantitative PCR (see below). The last fraction was employed to investigate effects on mitochondrial respiratory function by extracellular flux analysis (described above). The experiment was replicated three times.
Total RNA was extracted from harvested cells (RNAeasy kit Qiagen, Hilden, Germany). The RNA content was quantified on Nanodrop 1000 Spectrophotometer (Thermo Scientific). From 1 μg total RNA, cDNA was synthesized using High-Capacity Reverse Transcription Kit (Applied Biosystems, Carlsbad, Calif., US). Gene quantification was done using TaqMan probes for gene expression assays (Applied Biosystems). Probes used were: PGC1α (PPARG coactivator 1α), Hs00173304_m1; HIF1α (hypoxia inducible factor 1α), Hs00153153_m1; PDK1 (pyruvate dehydrogenase kinase 1), Hs01561847_m1; PDK4, (pyruvate dehydrogenase kinase 4), Hs01037712_m1; SIRT4 (sirtuin 4) Hs01015516_g1; ACOX1 (acyl-CoA oxidase 1) Hs01074241_m1; as reference genes, we used; Eukaryotic 18S rRNA Hs99999901_s1; actin beta Hs99999903_m1. Fold change was calculated as geometric mean of ΔΔCt of the two reference genes.

HuH-7 cells = assay: WST-1 cell viability assay in HuH-7 cells
Description: The fatty acids (FAs) TTA, tr-TTA, N-TTA, tr-N-TTA and (PA) were complexed with FBS following the same procedure, differing only in final stock concentration, due to variation in solubility. Approximately 0.07 g of FA was weighed in a 10 ml sterile serum tube (BD Vacutainer®, catalog no. 368430) and dissolved in sterile filtrated 0.1 M sodium hydroxide (NaOH) of a volume giving 25 mM FA, controls without FA were made, containing only NaOH and FBS. A syringe (Sterican®, catalog no. 4657577) was pierced through the rubber cap of the serum tube, and the tube was placed in an 80° C. water bath until the FAs were dissolved. Each FA-solution was then diluted in inactivated FBS to stock concentration 1 mM (N-TTA, tr-N-TTA), and 2 mM by adding the FA to a volume of 100% FBS after heating the FBS to 45° C. in a water bath. The transfer of FA to FBS had to be executed controlled and swiftly to avoid the formation of precipitates. If any precipitates in the solution were visible, the FA and a new volume of FBS were reheated, and the procedure performed again. Following successful complexation, the stock solutions were stored at −20° C. in 1 ml aliquots (CryoPure tube, Sarstedt AG & Co, Nümbrecht, Germany).
The WST-1 cell proliferation assay was performed using the kit from Roche (table 4.2.) and its accompanying procedure (version 16, February 2011) (134). The number of cells seeded to each well in the 96-well plates (Corning Inc., catalog no. 353072) varied depending on the treatment time and cell type (table 3.).
Cell suspension and medium were then transferred to each well in a volume of 100 μl in total. Subsequently, the plates were incubated for 24 hours to make the cells settle. The next day, 100 μl with FA complexed with FBS or diluted in DMSO was added to row A or B in the 96-well plate to give a defined concentration. The solution was then mixed with a pipette, and 100 μl of the medium with FA was transferred to the next well in the same column, mixed by pipetting up and down at least five times before 100 μl was transferred again to the next well in the column. This procedure was repeated until the second last, or last well in each column was reached, making a series of two-fold dilution of the FAs in the cell medium. Two parallels were performed for every treatment per run. After the addition of FAs, the plates were incubated for 24-96 hours depending on the length of the treatment.
Following the FA-treatment, the cells were studied under a microscope to ensure that visual observations matched the measured absorbance and cell activity in the assay. Subsequently, 10 μl WST-1 reagent was added to each well, and the plates were incubated for 3 hours. Due to high activity in the HuH-7 cell line, the WST-1 reagent was diluted 1:1 with PBS. Before the measurement of absorbance, the plates were placed on a shaker for 1 minute ensuring thoroughly mixing of the wells. The plates were then put straight into the spectrophotometer (SpectraMax Plus 384 Microplate Reader, Molecular Devices Corporation, San Jose, Calif., USA) to perform the measurements. The accompanying software was used (SoftMax Pro, Molecular Devices Corporation, San Jose, Calif., USA) to obtain the results. The absorbance of the samples was measured at 450 nm, and the reference wavelength was set to 650 nm. For each well, the measured absorption at 650 nm was subtracted from the absorption at 450 nm. The measured absorbance for the treated cells was then compared to the controls (blank) containing only cells and growth medium.

**Q.** For `CCCCCCCCCCCCCCNCC(=O)O` [N-TTA, N-tetradecylglycine], which “dose-dependent pattern of antiproliferative effects” value (HCC827 cells; HCC827 cells, three different concentrations) is on record?
**A.** Its value is “dose-dependent pattern of antiproliferative effects was found”.

**Q.** What about the “overall effects on cell viability and mitochondrial function (summary)” value (HCC827 cells; cultured cells, relatively high dosage) of the same compound?
**A.** Its value is “cytotoxic effects”.

**Q.** And the PDK4 expression [1]?
**A.** The PDK4 expression was “significantly increased”.

**Q.** And the PGC1α expression ([1]; vs control)?
**A.** Its PGC1α expression is “significant increase”.

**Q.** What about the “WST-1 activity compared to untreated cells” value (HuH-7 cells; 2 days, 16 μM, complexed with FBS) of the same compound?
**A.** Its value is 116%.

**Q.** And the “WST-1 activity compared to no treatment” value (HuH-7 cells; 2 days, 125-250 μM)?
**A.** Its value is 50-60%.

**Q.** What about the WST-1 activity (HuH-7 cells; 4 days, 1000 μM) of the same compound?
**A.** Its WST-1 activity is “The same result was true”.
